According to US7056940B2, “Insecticidal 3-(2,6-disubstituted phenyl)-5-[5-arylthien-2-yl]-1,2,4-triazoles” (Dow AgroSciences LLC, priority 2001, dated 2006):

test system: Cotton Aphid (Aphis gossypii); test: Insecticidal test for cotton aphid, spray on infested squash cotyledons; format: in vivo; conditions: 50 ppm spray, 3 days
Description: Insecticidal Test for Cotton Aphid (Aphis gossypii)
To prepare spray solutions, 1 mg of each test compound was dissolved into 1 mL of a 90:10 acetone:ethanol solvent. This 1 mL of chemical solution was added to 19 mL of water containing 0.05% Tween 20 surfactant to produce a 50 ppm spray solution.
Squash cotyledons were infested with cotton aphid (all life stages) 16–20 hours prior to application of spray solution. The solution was sprayed on both sides of each infested squash cotyledon (0.5 mL×2 each side) with a sweeping action until runoff. The plants were allowed to air dry and held for 3 days in a controlled room at 26° C. and 40% RH after which time the test was graded. Grading was by actual count using a dissecting microscope and comparison of test counts to the untreated check. Results are given in Tables 1–4 as percent control based on population reduction versus the untreated.

Structure (SMILES)	CA: activity at 50 ppm against cotton aphid (% control rating)
Cc1cc(-c2ccc(OC(F)(F)C(Cl)Cl)cc2)sc1-c1nc(-c2c(F)cccc2Cl)nn1C	A (90–100)
Cc1cc(-c2ccc(OC(F)(F)C(F)C(F)(F)F)cc2)sc1-c1nc(-c2c(F)cccc2Cl)nn1C (stereo not drawn)	B (80–89)
Cn1nc(-c2c(F)cccc2Cl)nc1-c1sc(-c2ccc(OC(F)(F)C(F)Br)cc2)cc1Cl (stereo not drawn)	E (50–59)
Cn1nc(-c2c(F)cccc2Cl)nc1-c1cc(-c2ccc3c(c2)OCC3)sc1Cl	C (70–79)
Cn1nc(-c2c(F)cccc2Cl)nc1-c1cc(-c2cccc(OC(F)(F)F)c2)sc1Cl	A (90–100)
Cn1nc(-c2c(F)cccc2Cl)nc1-c1csc(-c2ccc(Cl)cc2F)c1	B (80–89)

test system: Beet Armyworm (Spodoptera exigua); test: Insecticidal test for beet armyworm, treated lepidopteran diet; format: in vivo; set-up: key: A: 90–100; B: 80–89; C: 70–79; D: 60–69; E: 50–59; F: less than 50; G: Inactive; conditions: on diet surface, second-instar larvae, 5 days
Excerpt: (§1) The compounds are useful for reducing populations of insects and mites and are useful in a method of inhibiting an insect or mite population which comprises applying to a locus of the insect or mite an effective insect- or mite-inactivating amount of a compound of formula (1). The “locus” of insects or mites is a term used herein to refer to the environment in which the insects or mites live or where their eggs are present, including the air surrounding them, the food they eat, or objects which they contact. For example, insects or mites which eat or contact edible or ornamental plants can be controlled by applying the active compound to plant parts such as the seed, seedling, or cutting which is planted, the leaves, stems, fruits, grain, or roots, or to the soil in which the roots are growing. It is contemplated that the compounds might also be useful to protect textiles, paper, stored grain, seeds, domesticated animals, buildings or human beings by applying an active compound to or near such objects. The term “inhibiting an insect or mite” refers to a decrease in the numbers of living insects or mites, or a decrease in the number of viable insect or mite eggs. The extent of reduction accomplished by a compound depends, of course, upon the application rate of the compound, the particular compound used, and the target insect or mite species. At least an inactivating amount should be used. The terms “insect-inactivating amount” and “mite-inactivating amount” are used to describe the amount, which is sufficient to cause a measurable reduction in the treated insect or mite population. Generally an amount in the range from about 1 to about 1000 ppm by weight active compound is used. For example, insects and mites which can be inhibited include, but are not limited to: • Lepidoptera—Heliothis spp., Helicoverpa spp., Spodoptera spp., Mythimna unipuncta, Agrotis ipsilon, Earias spp., Euxoa auxiliaris, Trichoplusia ni, Anticarsia gemmatalis, Rachiplusia nu, Plutella xylostella, Chilo spp., Scirpophaga incertulas, Sesamia inferens, Cnaphalocrocis medinalis, Ostrinia nubilalis, Cydia pomonella, Carposina niponensis, Adoxophyes orana, Archips argyrospilus, Pandemis heparana, Epinotia aporema, Eupoecilia ambiguella, Lobesia botrana, Polychrosis viteana, Pectinophora gossypiella, Pieris rapae, Phyllonorycter spp., Leucoptera malifoliella, Phyllocnisitis citrella • Coleoptera—Diabrotica spp., Leptinotarsa decemlineata, Oulema oryzae, Anthonomus grandis, Lissorhoptrus oryzophilus, Agriotes spp., Melanotus communis, Popillia japonica, Cyclocephala spp., Tribolium spp. • Homoptera—Aphis spp., Myzus persicae, Rhopalosiphum spp., Dysaphis plantaginea, Toxoptera spp., Macrosiphum euphorbiae, Aulacorthum solani, Sitobion avenae, Metopolophium dirhodum, Schizaphis graminum, Brachycolus noxius, Nephotettix spp., Nilaparvata lugens, Sogatella furcifera, Laodelphax striatellus, Bemisia tabaci, Trialeurodes vaporariorum, Aleurodes proletella, Aleurothrixus floccosus, Quadraspidiotus perniciosus, Unaspis yanonensis, Ceroplastes rubens, Aonidiella aurantii • Hemiptera—Lygus spp., Eurygaster maura, Nezara viridula, Piezodorus guildingi, Leptocorisa varicornis • Thysanoptera—Frankliniella occidentalis, Thrips spp., Scirtothrips dorsalis • Isoptera—Reticulitermes flavipes, Coptotermes formosanus • Orthoptera—Blattella germanica, Blatta orientalis, Gryllotalpa spp. • Diptera—Liriomyza spp., Musca domestica, Aedes spp., Culex spp., Anopheles spp. • Hymenoptera—Iridomyrmex humilis, Solenopsis spp., Monomorium pharaonis, Atta spp., Pogonomyrmex spp., Camponotus spp. • Siphonaptera—Ctenophalides spp., Pulex irritans • Acarina—Tetranychus spp., Panonychus spp., Eotetranychus carpini, Phyllocoptruta oleivora, Aculus pelekassi, Brevipalpus phoenicis, Boophilus spp., Dermacentor variabilis, Rhipicephalus sanguineus, Amblyomma americanum, Ixodes spp., Notoedres cati, Sarcoptes scabiei, Dermatophagoides spp. […]

Structure (SMILES)	BAW: activity at 400 ppm against beet armyworm (% control rating)
Cc1cc(-c2ccc(OC(F)(F)C(Cl)Cl)cc2)sc1-c1nc(-c2c(F)cccc2Cl)nn1C	A (90–100)
Cc1cc(-c2ccc(OC(F)(F)C(F)C(F)(F)F)cc2)sc1-c1nc(-c2c(F)cccc2Cl)nn1C (stereo not drawn)	A (90–100)
Cn1nc(-c2c(F)cccc2Cl)nc1-c1sc(-c2ccc(OC(F)(F)C(F)Br)cc2)cc1Cl (stereo not drawn)	A (90–100)
Cn1nc(-c2c(F)cccc2Cl)nc1-c1cc(-c2ccc3c(c2)OCC3)sc1Cl	G
Cn1nc(-c2c(F)cccc2Cl)nc1-c1cc(-c2cccc(OC(F)(F)F)c2)sc1Cl	G
Cn1nc(-c2c(F)cccc2Cl)nc1-c1csc(-c2ccc(Cl)cc2F)c1	G

test system: Two-spotted Spider Mite (Tetranychus urticae); test: Insecticidal test for two-spotted spider mite, ovicide method; format: in vivo; set-up: key: A: 90–100; B: 80–89; C: 70–79; D: 60–69; E: 50–59; F: less than 50; G: Inactive; conditions: cotton leaf discs, 6 days
Description: Insecticidal Test for Two-spotted Spider Mite (Tetranychus urticae)
Ten adult female two-spotted spider mites were placed on eight 2.2 cm leaf discs of cotton leaf, allowed to oviposit over 24 hours, and thereafter removed. […] Discs were placed on an agar substrate and held at 24° C. and 90% RH for 6 days.

Structure (SMILES)	SM: activity against two-spotted spider mite (% control rating)
Cc1cc(-c2ccc(OC(F)(F)C(Cl)Cl)cc2)sc1-c1nc(-c2c(F)cccc2Cl)nn1C	B (80–89)
Cc1cc(-c2ccc(OC(F)(F)C(F)C(F)(F)F)cc2)sc1-c1nc(-c2c(F)cccc2Cl)nn1C (stereo not drawn)	A (90–100)
Cn1nc(-c2c(F)cccc2Cl)nc1-c1sc(-c2ccc(OC(F)(F)C(F)Br)cc2)cc1Cl (stereo not drawn)	C (70–79)
Cn1nc(-c2c(F)cccc2Cl)nc1-c1cc(-c2ccc3c(c2)OCC3)sc1Cl	G
Cn1nc(-c2c(F)cccc2Cl)nc1-c1cc(-c2cccc(OC(F)(F)F)c2)sc1Cl	A (90–100)
Cn1nc(-c2c(F)cccc2Cl)nc1-c1csc(-c2ccc(Cl)cc2F)c1	A (90–100)

test system: Tobacco Budworm (Heliothis virescens); test: Insecticidal test for tobacco budworm, treated cotton cotyledon leaf disc; format: in vivo; set-up: key: A: 90–100; B: 80–89; C: 70–79; D: 60–69; E: 50–59; F: less than 50; G: Inactive; conditions: cotton cotyledon leaf-dip, 2nd instar larvae, 5 days
Excerpt: as §1

Structure (SMILES)	TBW: activity at 400 ppm against tobacco budworm (% control rating)
Cc1cc(-c2ccc(OC(F)(F)C(Cl)Cl)cc2)sc1-c1nc(-c2c(F)cccc2Cl)nn1C	A (90–100)
Cc1cc(-c2ccc(OC(F)(F)C(F)C(F)(F)F)cc2)sc1-c1nc(-c2c(F)cccc2Cl)nn1C (stereo not drawn)	A (90–100)
Cn1nc(-c2c(F)cccc2Cl)nc1-c1sc(-c2ccc(OC(F)(F)C(F)Br)cc2)cc1Cl (stereo not drawn)	A (90–100)
Cn1nc(-c2c(F)cccc2Cl)nc1-c1cc(-c2ccc3c(c2)OCC3)sc1Cl	F (less than 50)
Cn1nc(-c2c(F)cccc2Cl)nc1-c1cc(-c2cccc(OC(F)(F)F)c2)sc1Cl	G
Cn1nc(-c2c(F)cccc2Cl)nc1-c1csc(-c2ccc(Cl)cc2F)c1	F (less than 50)

test system: Sweetpotato Whitefly (Bemisia tabacia); test: Insecticidal test for sweetpotato whitefly, spray on cotton plants; format: in vivo; set-up: key: A: 90–100; B: 80–89; C: 70–79; D: 60–69; E: 50–59; F: less than 50; G: Inactive; conditions: 200 ppm spray, 13 days, large nymphs
Description: Insecticidal Test for Sweetpotato Whitefly (Bemisia tabacia)
Four mg of each test compound was dissolved by adding 4 mL of a 90:10 acetone:ethanol solvent mixture to the vial containing the sample compound. This solution was added to 16 mL of water containing 0.05% Tween 20 surfactant to produce 20 mL of an 200 ppm spray solution.
Five-week-old cotton plants reared in a greenhouse were stripped of all foliage except for the two uppermost true leaves that were greater than 5 cm in diameter. These plants were then placed into a laboratory colony of whiteflies for two days for oviposition by the colony females. All whiteflies were then removed from the test plants with pressurized air. The spray solution was then applied to the test plants with a hand-held syringe fitted with hollow cone nozzle. One mL spray solution was applied to each leaf top and bottom for a total of 4 mL per plant. Four replications of each test compound utilized a total of 16 mL spray solution. Plants were air dried and then placed in a holding chamber (28° C. and 60% RH) for 13 days. Compound efficacy was evaluated by counting, under an illuminated magnifying glass, the number of large nymphs (3rd–4th instar) per leaf.
Percent control based on reduction of large nymphs of a test compound compared to solution-only (no test compound) sprayed plants is reported in Tables 1–4.

Structure (SMILES)	WF: activity at 200 ppm against whitefly (% control rating)
Cc1cc(-c2ccc(OC(F)(F)C(Cl)Cl)cc2)sc1-c1nc(-c2c(F)cccc2Cl)nn1C	E (50–59)
Cc1cc(-c2ccc(OC(F)(F)C(F)C(F)(F)F)cc2)sc1-c1nc(-c2c(F)cccc2Cl)nn1C (stereo not drawn)	F (less than 50)
Cn1nc(-c2c(F)cccc2Cl)nc1-c1sc(-c2ccc(OC(F)(F)C(F)Br)cc2)cc1Cl (stereo not drawn)	G
Cn1nc(-c2c(F)cccc2Cl)nc1-c1cc(-c2ccc3c(c2)OCC3)sc1Cl	G
Cn1nc(-c2c(F)cccc2Cl)nc1-c1cc(-c2cccc(OC(F)(F)F)c2)sc1Cl	G
Cn1nc(-c2c(F)cccc2Cl)nc1-c1csc(-c2ccc(Cl)cc2F)c1	F (less than 50)

test system: Cabbage Looper (Trichoplusia ni); test: Insecticidal test for cabbage looper, treated cabbage leaf disc; format: in vivo; conditions: cabbage leaf-dip, 2nd instar larvae, 5 days
Excerpt: as §1

Structure (SMILES)	CL: activity at 400 ppm against cabbage looper (% control rating)
Cc1cc(-c2ccc(OC(F)(F)C(Cl)Cl)cc2)sc1-c1nc(-c2c(F)cccc2Cl)nn1C	A (90–100)
Cc1cc(-c2ccc(OC(F)(F)C(F)C(F)(F)F)cc2)sc1-c1nc(-c2c(F)cccc2Cl)nn1C (stereo not drawn)	A (90–100)
Cn1nc(-c2c(F)cccc2Cl)nc1-c1sc(-c2ccc(OC(F)(F)C(F)Br)cc2)cc1Cl (stereo not drawn)	A (90–100)
Cn1nc(-c2c(F)cccc2Cl)nc1-c1cc(-c2ccc3c(c2)OCC3)sc1Cl	A (90–100)
Cn1nc(-c2c(F)cccc2Cl)nc1-c1cc(-c2cccc(OC(F)(F)F)c2)sc1Cl	A (90–100)
Cn1nc(-c2c(F)cccc2Cl)nc1-c1csc(-c2ccc(Cl)cc2F)c1	A (90–100)
